Values quoted from earlier work in patent US20110123445A1, “TREATMENT MONITORING” (priority 2008, published 2011).

Tests used:
[1] = phase I trial, 57 cancer patients; Adjei et al 2008
ERK phosphorylation = settings: at the recommended phase II dose; Adjei et al 2008
MEK = settings: Swiss 3T3 cells; Alessi et al 1995
tumour growth = settings: Sebolt-Leopold et al 1999, 2004
phosphorylated ERK = settings: phase II studies; all tumour types, including melanoma, breast, colon, and lung

Cn1cnc2c(F)c(Nc3ccc(Br)cc3Cl)c(C(=O)NOCCO)cc21 [AZD6244]
tolerability [1]: well tolerated | inhibition of ERK phosphorylation (ERK phosphorylation): demonstrable inhibition

COc1cccc(-c2cc(=O)c3ccccc3o2)c1N [PD098059]
suppression of MEK activation by a variety of agonists (MEK): 80-90%

O=C(NOCC1CC1)c1ccc(F)c(F)c1Nc1ccc(I)cc1Cl [PD184352]
inhibition of tumour growth in vivo (tumour growth): inhibit tumour growth in vivo

O=C(NOC[C@H](O)CO)c1ccc(F)c(F)c1Nc1ccc(I)cc1F [PD0325901]
phosphorylated ERK suppression in biopsied tumour tissue (phosphorylated ERK): phosphorylated ERK suppression at all dose levels
